Measured values taken from patent publication US20170333532A1, “ADP'ASE-ENHANCED APYRASE THERAPY FOR WOUNDS, MICROBIAL INFECTION, SEPSIS, AND HETEROTOPIC OSSIFICATION” (APT THERAPEUTICS, INC, priority 2014, published 2017).

Assays:
Assay type in all cases: cell-based
[1] = tested on: E. coli strain K12; experiment: Effect of colistin, Apyrase Agent and combinations on E. coli growth curve
Method: The effect of colistin, Apyrase agent, and combinations thereof were examined on E. coli growth.
E. coli strain K12 was cultivated to a concentration of about 0.1 OD (A600 nm).
The effect of colistin on E. coli growth. Replicate cultures were cultivated in the presence of colistin (at a concentration of 0.25 μg/ml) and various amounts of additional Apyrase Agent buffer (Tris-biffered saline; 1, 3, 10, or 30 μL).
The effect of Apyrase Agent on E. coli growth. Replicate cultures were cultivated in the presence of Apyrase Agent at various concentrations (i.e. 1, 3, 10, or 30 U/ml).
The effect of a combination of colistin and Apyrase Agent on E. coli growth. Replicate cultures were cultivated in the presence of colistin (at a concentration of […]) combined with Apyrase Agent at various concentrations (namely 1, 3, 10, or 30 U/ml).

[2] = tested on: A. baumannii strain DMCI; experiment: Killing of A. baumannii DMCI by colistin with Apyrase Agent, CFU count; settings: about 10^6 CFU/ml inoculum; Apyrase Agent 1 and 2 U/ml with colistin, or colistin alone at the same concentrations (4-32 μg/ml)
Method: (§1) In this Example (and in subsequent Examples), the colistin is colistin sulfate salt, catalog number C4461 from Sigma-Aldrich (St. Louis, Mo.) and the apyrase is catalog number M0393L from New England BioLabs Inc. (Ipswich, Mass.).
Approximately 10^6 CFU/ml of A. baumannii strain DMCI is grown on solid medium culture plates in the presence of combinations of 0, 1, and 2 U/ml of Apyrase Agent and 0, 4, 8, 16, and 32 μg/ml of colistin. After incubation, the numbers of viable cells are determined by counting the colony forming units (CFU) on the plate (data provided as CFU/ml).

[3] = tested on: A. baumannii strain AC285; experiment: Killing of colistin-resistant A. baumannii AC285 by colistin with Apyrase Agent, CFU count; settings: colistin at less than 5-10 μg/ml, with Apyrase Agent 2 U/ml or alone
Method: as §1
(§2) Approximately 10^5 to 10^6 CFU/ml of the colistin-resistant A. baumannii strain AC285 is grown in the presence of combinations of 0 and 2 U/ml of Apyrase Agent and approximately 0 to 32 μg/ml of colistin. After incubation, the numbers of viable cells are determined by counting the colony forming units (CFU) on the plate (data provided as CFU/ml). Apyrase Agent improves the efficiency of killing A. baumannii strain AC285 by colistin. Apyrase Agent increases the effectiveness of colistin at less than 5-10 μg/ml such that less than 10 to 100 CFU/ml are detected relative to greater than 10^7 to 10^8 in the presence of colistin alone at the same concentrations.

[4] = tested on: Burkholderia cepacia AU1114; experiment: Killing of Burkholderia cepacia AU1114 by colistin with Apyrase Agent, CFU count; settings: colistin at less than 20 μg/ml, with Apyrase Agent 2 U/ml or alone
Method: as §1
as §2, with “Burkholderia cepacia AU1114” for “Approximately 10^5 to 10^6 CFU/ml of the colistin-resistant A. baumannii strain AC285”, “20” for “32”, “Burkholderia cepacia AU1114” for “A. baumannii strain AC285”, “20” for “5-10”, “10^5” for “10^7”, “10^6” for “10^8”

[5] = tested on: Burkholderia cepacia GIIIb AU0062; experiment: Killing of Burkholderia cepacia GIIIb AU0062 by colistin with Apyrase Agent, CFU count; settings: colistin at less than 20 μg/ml, with Apyrase Agent 2 U/ml or alone
Method: as §1
as §2, with “Burkholderia cepacia GIIIb AU0062” for “Approximately 10^5 to 10^6 CFU/ml of the colistin-resistant A. baumannii strain AC285”, “20” for “32”, “Burkholderia cepacia GIIIb AU0062” for “A. baumannii strain AC285”, “20” for “5-10”, “10^4” for “10^7”, “10^5” for “10^8”

[6] = tested on: Burkholderia ambifaria AU5203; experiment: Killing of Burkholderia ambifaria AU5203 by colistin with Apyrase Agent, CFU count; settings: colistin at less than 20 μg/ml, with Apyrase Agent 2 U/ml or alone
Method: as §1
as §2, with “Burkholderia ambifaria AU5203” for “Approximately 10^5 to 10^6 CFU/ml of the colistin-resistant A. baumannii strain AC285”, “20” for “32”, “Burkholderia ambifaria AU5203” for “A. baumannii strain AC285”, “20” for “5-10”, “10^5” for “10^7”, “10^6” for “10^8”

[7] = tested on: Burkholderia cepacia GIIIb AU0055; experiment: Killing of Burkholderia cepacia GIIIb AU0055 by colistin with Apyrase Agent, CFU count; settings: colistin at less than 10 μg/ml, with Apyrase Agent 2 U/ml or alone
Method: as §1
as §2, with “Burkholderia cepacia GIIIb AU0055” for “Approximately 10^5 to 10^6 CFU/ml of the colistin-resistant A. baumannii strain AC285”, “20” for “32”, “Burkholderia cepacia GIIIb AU0055” for “A. baumannii strain AC285”, “10” for “5-10”, “10^4” for “10^7”, “10^5” for “10^8”

[8] = tested on: Burkholderia dolosa AU0589; experiment: Killing of Burkholderia dolosa AU0589 by colistin with Apyrase Agent, CFU count; settings: colistin at less than 20 μg/ml, with Apyrase Agent 2 U/ml or alone
Method: as §1
Burkholderia dolosa AU0589 is grown in the presence of combinations of 0 and 2 U/ml of Apyrase Agent and approximately 0 to 20 μg/ml of colistin. After incubation, the numbers of viable cells are determined by counting the colony forming units (CFU) on the plate (data provided as CFU/ml). Apyrase Agent improves the efficiency of killing Burkholderia dolosa AU0589 by colistin. Apyrase Agent increases the effectiveness of colistin at less than 20 μg/ml such that less than 10 to 100 CFU/ml are detected relative to greater than 10^6 to 10^7 in the presence of colistin alone at the same concentrations.

Q: For colistin sulfate salt, which “effect on E coli growth” value ([1]; colistin 0.25 μg/ml plus Apyrase Agent buffer 1, 3, 10, or 30 μL, 24 hour period, FIG. 1) is on record?
A: The value was “no effect”.

Q: What about the “effect on E. coli growth” value ([1]; colistin 0.25 mg/ml alone or combined with Apyrase Agent 1, 3, 10, or 30 U/ml, FIG. 3) of the same substance?
A: Its value is “negligible effect”.

Q: And the viable cell count [2]?
A: The viable cell count was “approximately 10^7 CFU/ml”.

Q: What about the “numbers of viable cells (CFU)” value [3] of the same substance?
A: The value was 10^7 to 10^8 CFU/ml.

Q: What about the “numbers of viable cells (CFU)” value [4] of the same substance?
A: Its value is 10^5 to 10^6 CFU/ml.

Q: And the “numbers of viable cells (CFU)” value [5]?
A: Its value is 10^4 to 10^5 CFU/ml.

Q: What about the “numbers of viable cells (CFU)” value [6] of the same substance?
A: The value was 10^5 to 10^6 CFU/ml.

Q: And the “numbers of viable cells (CFU)” value [7]?
A: The value was 10^4 to 10^5 CFU/ml.

Q: And the “numbers of viable cells (CFU)” value [8]?
A: The value was 10^6 to 10^7 CFU/ml.
